From patent US20230226092A1, “CANCER […] ON G[…]” (NuCana plc, priority 2015, published 2023)
“Also recorded” adds a separate entry of the source.

Key:
[1] = ProGem1 dose escalation clinical study: safety and tolerability; type: in vivo, human
Method: Although the primary objectives of the dose escalation part of the study were to determine the Recommended Phase II Dose (RP2D) and safety profile, secondary objectives included determining the PK profile, however effective treatment of patients with a range of refractory cancers has also been observed as part of this study.
NUC-1031 was administered as a 5 to 30 minute intravenous slow bolus injection. • Schedule A: NUC-1031 was administered on days 1, 8, 15 of a 4 weekly Cycle. • Schedule B: NUC-1031 was administered on days 1, 5, 8, 12, 15, 19, of a 4 weekly Cycle.

[2] = test system: Lin^-/CD34^+/CD38^-/CD123^+ CSCs of KG1a cells; assay: Immunophenotypic identification of the leukaemic stem cell compartment in KG1a; type: cell-based, human; settings: 72 h, sub-micromolar concentrations
Method: KG1a cells were cultured for 72 hours in the presence of a wide range of concentrations of each nucleoside analogue and their respective ProTides. Cells were then harvested and labelled with a cocktail of anti-lineage antibodies (PE-cy7), anti-CD34 (FITC), anti-CD38 (PE) and anti-CD123 (PERCP cy5). The sub-population expressing a leukaemic stem cell (LSC) phenotype were subsequently identified and were expressed as a percentage of all viable cells left in the culture. The percentages of stem cells remaining were then plotted on a dose-response graph and the effects of the ProTides were compared with the parental nucleoside.
KG1a cells were cultured for 72 hours in the presence of a wide range of concentrations of each compound assayed. Cells were then harvested and labelled with a cocktail of anti-lineage antibodies (PE-cy7), anti-CD34 (FITC), anti-CD38 (PE) and anti-CD123 (PERCP cy5). The sub-population expressing a CSC phenotype were subsequently identified and were expressed as a percentage of all viable cells left in the culture. The percentages of CSCs remaining were then plotted on a dose-response graph and the effects of the NUC-1031 (and its purified isomers) were compared with gemcitabline.

[3] = test system: primary acute myeloid leukaemia (AML) blasts; assay: In vitro cytotoxicity assay (annexin V apoptosis) in primary acute myeloid leukemia cells; type: cell-based, human
Method: NUC-1031 was assayed for its cytotoxic effects on primary cultures of acute myeloid leukaemia (AML) blasts. LD50 values (the concentration required to kill 50% of the tumour cells in culture) were calculated in respect of NUC-1031 and gemcitabine.
Bone marrow samples were collected in ethylenediaminetetraacetic acid (EDTA) from newly diagnosed, previously untreated, acute myeloid leukemia (AML) patients. AML blasts were enriched by density gradient centrifugation using Histopaque (Sigma, Poole, UK) and were subsequently maintained in Roswell Park Memorial Institute medium (RPMI) supplemented with 10% foetal bovine serum (FBS). Cells were treated with Gemcitabine or NUC-1031 at concentrations between 0.25 µM and 10 µM, and incubated for 48h. All cultures were maintained at 37° C. in a 5% CO2 humidified atmosphere.
Cells were harvested and labelled with CD34-fluorescein isothiocyanate (FITC) (BD Biosciences, Buckingham, UK) and then resuspended in 200 µl of binding buffer containing 4µl of annexin V labelled with allophycocyanin (APC) (eBioscience Ltd, Hatfield, UK). Apoptosis was quantified in the CD34^+ AML cells using an Accuri C6 flow cytometer (Becton Dickinson, CA, USA). At least 10,000 events were acquired and data were subsequently analysed using FlowJo software (Tree Star Inc., Ashland, OR, USA). All LD50 values (concentration of drug required to kill 50% of cells) were derived from the dose-response curves.

[4] = test system: CD34^+/CD123^+ leukaemic stem cells; assay: Quantification of CD34+/CD123+ sub-populations in primary AML cells; type: cell-based, human
Method: Putative leukaemic stem cells were identified by dual expression of CD34 and CD123. The relative sensitivity of these cells to the effects of gemcitabine and NUC-1031 were assessed as a function of the percentage of these cells that remained viable following exposure to molar equivalents of each agent.

## gemcitabine-[phenyl-benzoxy-L-alaninyl)]-phosphate [NUC-1031]
[1]; Patient 004, breast cancer, 500 mg/m^2 weekly
  Adverse events (grade) / tolerability: tolerated treatment well
[1]; Patient 005, ovarian cancer, 500 mg/m^2 weekly
  Adverse events (grade) / tolerability: tolerated treatment well
[1]; Patient 007, colorectal cancer, possible linked to splenomegaly at baseline
  Adverse events (grade) / tolerability: thrombocytopaenia (G3)
[1]; Patient 008, cancer of unknown primary, 375 mg/m^2 twice weekly, pleural effusion unlikely related to study drug
  Adverse events (grade) / tolerability: transient (G3) transaminitis (ALT and AST); also recorded: pleural effusion (G3)
[1]; Patient 010, endometrial cancer, neutropenia in Cycle 1 at 750 mg/m^2
  Adverse events (grade) / tolerability: neutropenia (G3); also recorded: transient Grade 3 anaemia
[1]; Patient 011, uterine carcinosarcoma, 375 mg/m^2 twice weekly
  Adverse events (grade) / tolerability: transient neutropaenia (G3); also recorded: low haemoglobin (G2)
[1]; Patient 012, cholangiocarcinoma
  Adverse events (grade) / tolerability: tolerated treatment well
[1]; Patient 015, cancer of unknown primary, Cycle 1 Day 8
  Adverse events (grade) / tolerability: thrombocytopenia (G3); also recorded: lymphopenia (G3); also recorded: neutropenia (G2)
[1]; Patient 017, lung cancer
  Adverse events (grade) / tolerability: tolerated NUC-1031 well
[1]; Patient 021, fallopian tube cancer, 625 mg/m^2 weekly
  Adverse events (grade) / tolerability: tolerated NUC-1031 well
[1]; Patient 027, ovarian cancer, ALT after Cycle 1 Day 1 at 725 mg/m^2, a DLT
  Adverse events (grade) / tolerability: elevated ALT (G3); also recorded: mild neutropenia
[1]; Patient 027, ovarian cancer, day 7, from 96 at baseline
  ALT: 256
[1]; Patient 030, ovarian cancer, 725 mg/m^2 weekly
  Adverse events (grade) / tolerability: tolerated study drug well
[1]; Patient 036, renal carcinoma, 825 mg/m^2 weekly, thrombocytopenia following Cycle 5 Day 1
  Adverse events (grade) / tolerability: thrombocytopenia (G3); also recorded: tolerating NUC-1031 much better than their previous regimen
[1]; Patient 037, pancreatic cancer, 1,000, then 900 mg/m^2 weekly
  Adverse events (grade) / tolerability: loss of appetite, severe fatigue
[1]; Patient 038, ovarian cancer, 900 mg/m^2 weekly, main toxicity, days 3 to 4
  Adverse events (grade) / tolerability: delayed onset fatigue
[1]; Patient 040, cholangiocarcinoma, source was a stent blocked with tumour and a biliary tract cyst
  Adverse events (grade) / tolerability: infection (G3)
[1]; Patient 041, breast cancer, 900 mg/m^2 weekly, fatigue during Cycle 3, neutropenia after Cycle 1 Day 8 and Day 15
  Adverse events (grade) / tolerability: fatigue (G3); also recorded: neutropenia
[1]; Patient 042, cholangiocarcinoma, 900 mg/m^2 weekly, days 3-5
  Adverse events (grade) / tolerability: delayed onset fatigue (G2)
[1]; Patient 043, ovarian cancer, 900 mg/m^2 weekly, fatigue on days 4 and 5
  Adverse events (grade) / tolerability: delayed onset fatigue (G2); also recorded: Leg oedema developed to G3
[1]; Patient 044, lung cancer, 900, then 825 mg/m^2 weekly
  Adverse events (grade) / tolerability: G3 lung infection; also recorded: thrombocytopenia
[1]; Patient 046, adrenal carcinoma, all G3 events in Cycle 1 at 1,000 mg/m^2, fatigue (G3) and neutropenia (G2) following Cycle 8 D1
  Adverse events (grade) / tolerability: delayed onset fatigue, nausea and vomiting (all G3); also recorded: neutropenia (G2)
[1]; Patient 048, ovarian cancer, ALT, AST, neutropaenia (G2), ALP following Cycle 1 Day 1 at 1,000 mg/m^2, neutropenia (G3) in Cycle 4
  Adverse events (grade) / tolerability: ALT, (G3, a DLT); also recorded: AST and neutropaenia (G2); also recorded: ALP (G1); also recorded: neutropenia (G3); also recorded: diarrhoea following each dose
[1]; Patient 050 (202), oesophageal cancer, following Cycle 1 Day 1 at 900 mg/m^2
  Adverse events (grade) / tolerability: ALT and fatigue, both G3
[1]; Patient 051 (203), anal cancer, 900 mg/m^2 weekly
  Adverse events (grade) / tolerability: tolerated treatment well
[1]; Patient 055 (207), ovarian cancer, 825 mg/m^2 weekly
  Adverse events (grade) / tolerability: nausea and vomiting post chemotherapy
[1]; Patient 057 (209), ovarian cancer, Cycle 1 Day 15, 900 mg/m^2 weekly
  Adverse events (grade) / tolerability: anaemia and ascites both G3
[1]; Patient 058 (210), lung cancer, Cycle 1 at 825 mg/m^2, may be partly due to a congenital liver condition
  Adverse events (grade) / tolerability: G3 transaminitis (ALT), a DLT
[1]; Patient 059 (211), cervical cancer, thrombocytopenia in Cycle 1 at 825 mg/m^2, fatigue during Cycle 3
  Adverse events (grade) / tolerability: thrombocytopenia (G3); also recorded: fatigue (G3)
[1]; Patient 060 (212), pancreatic cancer, 825 mg/m^2 weekly, required new stent
  Adverse events (grade) / tolerability: ALP, AST, ALT, all G3
[1]; Patient 061 (213), colorectal cancer, 825 mg/m^2 weekly
  Adverse events (grade) / tolerability: no nausea or vomiting during treatment
[1]; Patient 063 (215), ovarian cancer, fatigue on Cycle 3
  Adverse events (grade) / tolerability: fatigue (G3); also recorded: anaemia and neutropenia
[1]; Patient 067 (219), osteosarcoma, 825 mg/m^2 weekly, neutropenia towards the end of each Cycle
  Adverse events (grade) / tolerability: neutropenia G2; also recorded: Tolerated study drug well
[1]; Patient 069 (221), colorectal cancer, G4/G3 during Cycle 3 at 825 mg/m^2, G3 following Cycle 4 D1 at 750, G2 at C5 D8
  Adverse events (grade) / tolerability: neutropenia (G4); also recorded: neutropenia and leukopenia, G3; also recorded: neutropenia and leukopenia, G2
[2]
  targeting of CSCs compared with Gemcitabine: preferential targeting of CSCs
[3]; AML blast cultures
  cytotoxic potency on CSCs and non-stem cancer cells compared with gemcitabine: increased potency
[3]; primary AML blasts, CD34+ cells, 48h, annexin V
  mean LD50: 1.6 µM
[4]; 1 µM and 2.5 µM
  CD34^+/CD123^+ leukaemic stem cell viability as compared to gemcitabine: significant reductions
[4]; AML blast cultures, micromolar concentrations
  depletion of CSCs (CD34^+/CD123^+ cells) compared with gemcitabine: enhanced ability to deplete CSCs; also recorded: preferentially depletes CD34^+/CD123^+ cells
